Measurements reported in patent publication US20260364068A1, “ANTIVIRAL USE OF HETEROARYL DERIVATIVE COMPOUND” (UIF (University Industry Foundation), Yonsei University, priority 2022, published 2026).

Tests used:
[1] = Cell viability measurement (MTS), Vero cells; format: cell-based; conditions: monkey
Protocol: (§1) Experimental Example 3: Cell Viability Measurement
(§2) Vero cell line (VERO01WCB-1201, Ministry of Food and Drug Safety, Republic of Korea), Calu-3 cell line (KCLB #30055, Korea Cell Line Bank (KCLB), Republic of Korea), CellTiter 96® AQueous One Solution Cell Proliferation Assay kit (Promega, cat. #G3582), and Infinite M200 microplate reader (Tecan).
Vero cells were cultured at 37 °C and 5% CO2 in DMEM medium supplemented with 10% fetal bovine serum, 100 units/mL penicillin, and 100 μg/mL streptomycin.
(§3) Vero cells or Calu-3 cells were seeded in 96-well microplates and cultured for 24 hours until the cell confluency reached 20%. After the incubation, compounds were treated in DMSO at concentrations (1, 3, and 10 μM) to reach 0.5% v/v in each well, and reacted at 37 °C for 48 hours. Into each well of the incubated 96-well microplate, 3-(4,5-dimethylthiazol-2-yl)-5-(3-carboxymethoxyphenyl)-2-(4-sulfophenyl)-2H-tetrazolium salt (MTS) assay solution [CellTiter 96® AQueous One Solution Cell Proliferation Assay kit (Promega)] mixed with DMEM medium at a ratio of 1:5, was dispensed at 100 μL/well and incubated at 37 °C for 1 hour. The 490 nm and 690 nm absorbance was then measured using an Infinite M200 instrument.
(§4) The cell viability (also, referred to as cell survival rate) (%) by compound treatment was calculated using the following analysis method. The 690 nm background absorbance value was subtracted from the measured 490 nm absorbance value. Then, to obtain the cell viability of each test group, the viability of the DMSO-treated group that was not treated with the compound was set to 100% and then the relative viability 1 of each compound was calculated. Two to six repeated tests were performed to obtain the results, and the mean values of the results were categorized into the following ranges and shown in Table 5 below (A: 80% survived, B: 50-80% survived, N/A: not tested)

[2] = Cell viability measurement (MTS), Calu-3 cells; format: cell-based; conditions: human
Protocol: as §1, §2
Calu-3 cells were cultured at 37 °C and 5% CO2 in MEM medium supplemented with 10% fetal bovine serum, 2.2 g/L sodium bicarbonate, 1% 100 units/mL penicillin, and 100 μg/mL streptomycin.
as §3, §4

Row | SMILES | viability at 48 h, 1 µM [1] | viability at 48 h, 3 µM [1] | viability at 48 h, 1 µM [2] | viability at 48 h, 10 µM [1] | viability at 48 h, 3 µM [2] | viability at 48 h, 10 µM ([2]; 10 μM)
1 | FC(F)(F)c1ccc2nc(-c3cccc(Nc4ncc(-c5ccccc5)cn4)c3)[nH]c2c1 [Example 14, 5-phenyl-N-(3-(6-(trifluoromethyl)-1H-benzo[d]imidazol-2-yl)phenyl)pyrimidin-2-amine] | > 80% |  |  |  |  | 
2 | CC(C)(C)c1ccc2nc(-c3cccc(Nc4ccc(-c5ccccc5)nn4)c3)[nH]c2c1 [Example 3, N-[3-(6-tert-butyl-1H-benzo[d]imidazol-2-yl)phenyl]-6-phenylpyridazin-3-amine] | > 80% | 50 to 80% |  |  |  | 
3 | FC(F)(F)c1ccc2nc(-c3cccc(Nc4ccc(-c5ccccn5)cn4)c3)[nH]c2c1 [Example 57, N-{3-[6-(trifluoromethyl)-1H-benzo[d]imidazol-2-yl]phenyl}-[2,3′-bipyridin]-6′-amine] | > 80% | > 80% | 50 to 80% | 50 to 80% |  | 
4 | Fc1ccc2nc(-c3cccc(Nc4ccc(-c5ccccn5)cn4)c3)[nH]c2c1 [Example 58, N-(3-(6-fluoro-1H-benzo[d]imidazol-2-yl)phenyl)-[2,3′-bipyridine]-6′-amine] | > 80% | > 80% | 50 to 80% |  |  | 
5 | Fc1cccc(-c2ccc(Nc3cccc(-c4nc5ccc(C(F)(F)F)cc5[nH]4)c3)nc2)c1 [Example 18, 5-(3-fluorophenyl)-N-(3-(6-(trifluoromethyl)-1H-benzo[d]imidazol-2-yl)phenyl)pyridin-2-amine] | > 80% |  |  | 50 to 80% |  | 
6 | Fc1ccc2nc(-c3cccc(Nc4ccc(-c5ccncn5)cn4)c3)[nH]c2c1 [Example 72, N-(3-(6-fluoro-1H-benzo[d]imidazol-2-yl)phenyl)-5-(pyrimidin-4-yl)pyridin-2-amine] |  | > 80% |  |  |  | 
7 | FC(F)(F)c1ccc2nc(-c3cccc(Nc4ccc(-c5ccccc5)nn4)c3)[nH]c2c1 [Example 1, 6-phenyl-N-(3-(6-(trifluoromethyl)-1H-benzo[d]imidazol-2-yl)phenyl)pyridazin-3-amine] | > 80% | > 80% |  |  |  | 
8 | Fc1cc2nc(-c3cccc(Nc4ccc(-c5ccccc5)nn4)c3)[nH]c2cc1Br [Example 4, N-[3-(6-bromo-5-fluoro-1H-benzo[d]imidazol-2-yl)phenyl]-6-phenylpyridazin-3-amine] | > 80% | > 80% |  | 50 to 80% |  | 
9 | FC(F)(F)c1ccc2nc(-c3cccc(Nc4ccc(-c5cnccn5)cc4)c3)[nH]c2c1 [Example 29, N-[4-(pyrazin-2-yl)phenyl]-3-[6-(trifluoromethyl)-1H-benzo[d]imidazol-2-yl]aniline] | > 80% |  |  |  |  | 
10 | COC(=O)c1ccc2nc(-c3cccc(Nc4ccc(-c5cccnn5)cc4)c3)[nH]c2c1 [Example 61, methyl 2-(3-((4-(pyridazin-3-yl)phenyl)amino)phenyl)-1H-benzo[d]imidazol-6-carboxylate] | > 80% |  |  |  |  | 
11 | c1cc(Nc2ccc(-c3cccnn3)cn2)cc(-c2nc3ccccc3[nH]2)c1 [Example 56, N-[3-(1H-benzo[d]imidazol-2-yl)phenyl]-5-(pyridazin-3-yl)pyridin-2-amine] | > 80% |  | > 80% | > 80% | 50 to 80% | 
12 | c1cncc(-c2ccc(Nc3cccc(-c4nc5ccccc5[nH]4)c3)cc2)c1 [Example 31, N-[3-(1H-benzo[d]imidazol-2-yl)phenyl]-4-(pyridin-3-yl)aniline] | > 80% |  | 50 to 80% | 50 to 80% |  | 
13 | FC(F)(F)c1ccc2nc(-c3cccc(Nc4ncc(-c5cccnn5)cn4)c3)[nH]c2c1 [Example 52, 5-(pyridazin-3-yl)-N-(3-(6-(trifluoromethyl)-1H-benzo[d]imidazol-2-yl)phenyl)pyrimidin-2-amine] | > 80% | > 80% | 50 to 80% | > 80% | 50 to 80% | 50 to 80%
